These results are taken from ChEMBL document CHEMBL4619798, “Bioreducible Phosphonoamidate Pro-drug Inhibitor of Enolase: Proof of Concept Study” (ACS Med Chem Lett, 2020).

SMILES strings stand for the structures.

Data set [1] is described as follows: Cytotoxicity against human D423 cells with ENO1 deficient assessed as reduction in cell viability incubated for 5 days by crystal violet staining based spectrophotometry. The note with it: 120 h.
The nature of data set [2]: Cytotoxicity against human D423 cells with ENO1 deficient assessed as reduction in cell viability incubated for 5 days in presence of 1 % oxygen by crystal violet staining based spectrophotometry. The note with it: 120 h.
Data set [3] is described as follows: Cytotoxicity against human D423 cells with ENO1 deficient assessed as reduction in cell viability incubated for 5 days in presence of 21 % oxygen by crystal violet staining based spectrophotometry. The conditions noted are these: 120 h.
The nature of data set [4]: Stability in human plasma assessed as formation of monoester metabolite measured upto 22 hrs by NMR analysis. It counts as ADME, cell-free.
Data set [5] is described as follows: Stability in human plasma assessed as formation of monoester metabolite measured at less than 30 mins by NMR analysis. It counts as ADME, cell-free. The conditions noted are these: 0.5 h.

As to `CC(C)(C)C(=O)OCOP(=O)(NCc1ccccc1)C1CCCN(O)C1=O` (stereo unspecified), the IC50 in data set [1] was 98 nM.
Consider `CC(=O)ON1CCCC(P(=O)(NCc2ccccc2)OCc2ccc([N+](=O)[O-])o2)C1=O` (stereo unspecified), for which the half-maximal inhibitory concentration (IC50) came to 136 nM in data set [2] and 299 nM in data set [3]. Also, the Stability result in data set [4] is given as “Stable”.
For the compound `CC(C)(C)C(=O)OCOP(=O)(OCOC(=O)C(C)(C)C)C1CCCN(O)C1=O` (stereo unspecified), the concentration for half-maximal inhibition (IC50) amounted to 201 nM in data set [2], 38 nM in data set [1] and 79 nM in data set [3]. In addition, in data set [5], the Stability result was “Unstable”.
With `O=C1C(P(=O)(O)O)CCCN1O` (stereo unspecified), the IC50 in data set [1] was 11800 nM.
Turning to `Cn1c(COP(=O)(NCCBr)NCCBr)cnc1[N+](=O)[O-]` [EVOFOSFAMIDE], the IC50 stood at 404 nM in data set [2] and 3200 nM in data set [3].

A word on the IC50: it is the concentration needed to halve the response being measured.
